Reference: patent publication US8652533B2 (priority 2004, dated 2014)

Legend:
SARS (Toronto-2 Strain) = test: microbe, parasite or virus in culture; format: cell-based, SARS coronavirus (SARSCoV); details: for ACTIVITY: conc. 1 μM; for cytoprotective effect in the assay (in words): tested concentration (1 μM)
SARSCoV, strain Urbani = format: cell-based, SARS coronavirus (SARSCoV)

Compound | ACTIVITY (SARS (Toronto-2 Strain)) | cytoprotective effect in the assay (in words) (SARS (Toronto-2 Strain)) | inhibition at 1 µM (SARS (Toronto-2 Strain); Severe acute respiratory syndrome coronavirus, Vero 76, 72 h, read-out: % CPE (INHIBITION)) [%] | direct virucidal effect (in words) (SARSCoV, strain Urbani)
Oc1cc(O)c2c(c1)O[C@H](c1ccc(O)c(O)c1)[C@@H](O)C2 [(+)-Catechin] | Inactive | not |  | 
Oc1cc(O)c2c(c1)O[C@@H](c1ccc(O)c(O)c1)[C@@H](O)C2 [(+)-Epicatechin] | Inactive |  |  | 
Oc1cc(O)c2c(c1)O[C@H](c1cc(O)c(O)c(O)c1)[C@@H](O)C2 [(+)-Gallocatechin] | Inactive | not |  | 
O=C(O[C@@H]1Cc2c(O)cc(O)cc2O[C@H]1c1ccc(O)c(O)c1)c1cc(O)c(O)c(O)c1 [(−)-Catechin Gallate] | Active |  |  | 
O=C(O[C@@H]1Cc2c(O)cc(O)cc2O[C@@H]1c1ccc(O)c(O)c1)c1cc(O)c(O)c(O)c1 [(−)-Epicatechin Gallate] | Active | had cytoprotective effect |  | 
Oc1cc(O)c2c(c1)O[C@H](c1ccc(O)c(O)c1)[C@H](O)C2 [(−)-Epicatechin] | Inactive | not |  | 
Oc1cc(O)c2c(c1)O[C@H](c1cc(O)c(O)c(O)c1)[C@H](O)C2 [(−)-Epigallocatechin] | Inactive | not |  | 
Oc1cc(O)c2c(c1)O[C@@H](c1cc(O)c(O)c(O)c1)[C@H](O)C2 [(−)-Gallocatechin] | Inactive |  |  | 
O=C(O[C@@H]1Cc2c(O)cc(O)cc2O[C@@H]1c1cc(O)c(=O)c2c(O)c(O)cc([C@H]3Oc4cc(O)cc(O)c4C[C@H]3OC(=O)c3cc(O)c(O)c(O)c3)c2c1)c1cc(O)c(O)c(O)c1 [Theaflavindigallate] | Active |  | 100 | 
O=c1c(O)cc([C@H]2Oc3cc(O)cc(O)c3C[C@H]2O)cc2c([C@H]3Oc4cc(O)cc(O)c4C[C@H]3O)cc(O)c(O)c12 [free Theaflavin] | Active |  |  | 
(−)-Catechin | Inactive |  |  | 
(−)-Epigallocatechin Gallate | Active | had cytoprotective effect |  | 
(−)-Gallocatechin Gallate | Active | had cytoprotective effect |  | 
Theaflavindigallate-A | Inactive |  |  | 
Theaflavindigallate-B | Inactive |  |  | 
catechin |  |  |  | very inhibitory to the virus
